Results reported in the NIST ThermoML archive (doi:10.1021/je4006739).
± gives the expanded uncertainty stated by the source.

Details: Liquid; for mass density: 293.15 K, 101.33 kPa, Vibrating tube method; for Normal boiling temperature: Ebulliometric method (Recirculating still)

mass density [kg/m3] | Normal boiling temperature [°C] | Structure (SMILES)
928.92 ± 0.23 | 135.20 ± 1 | CCOCCO [2-ethoxyethan-1-ol]
1092.48 ± 0.27 | 189.10 ± 1 | C[S+](C)[O-] [dimethyl sulfoxide]
863.64 ± 0.23 | 136.10 ± 1 | CCc1ccccc1 [ethylbenzene]
